Source: patent US20240122923A1, “METHODS OF TREATING HIDRADENITIS SUPPURATIVA” (AbbVie Inc., priority 2022, published 2024)

Test system: adult human subjects with moderate to severe Hidradenitis Suppurativa (HS)
Experiment: Phase 2 randomized, double-blind, placebo-controlled study of upadacitinib, efficacy incl. post-hoc analysis through week 40
Assay type: in vivo
Conditions: for Pain NRS30 at Week 12, UPA - PBO Diff: UPA 30 mg vs historical PBO rate 22.5%, p=0.028; for HiSCR at Week 12, UPA - PBO Diff: UPA 30 mg vs historical PBO rate 25%, 1-sided p=0.018; for HiSCR at Week 12, % (N), stratum TNF-IR / HiSCR at Week 12, % (N), stratum Hurley Stage (III) / HiSCR at Week 12, % (N), stratum Hurley Stage (<III) / HiSCR at Week 12, % (N), stratum TNF-Naïve / HiSCR at Week 12, % (N), Overall: UPA 30 mg; for HiSCR at Week 12, % (N), stratum TNF-IR: N=12; for HiSCR at Week 12, % (N), stratum Hurley Stage (III): N=23; for HiSCR at Week 12, % (N), stratum Hurley Stage (<III): N=24; for HiSCR at Week 12, % (N), stratum TNF-Naïve: N=35; for HiSCR at Week 12, % (N), Overall: N=47
Source text: This study was a Phase 2, multicenter, randomized, double-blind, parallel-group, placebo-controlled study to evaluate the efficacy and safety of upadacitinib in adult human subjects with moderate to severe Hidradenitis Suppurativa (HS).
The duration of the study was 57 weeks, including an approximately 35-day screening period followed by a 48-week double-blinded treatment period and a 30-day follow-up visit after the last dose of study drug. Subjects were randomized in a 2:1 ratio to 1 of the 2 arms as shown below: • Upadacitinib 30 mg once daily (QD) (N=40): Daily oral doses of upadacitinib 30 mg from the Baseline visit through Period 1 and Period 2. • Placebo (N=20): Placebo for upadacitinib from the Baseline visit up to the Week 12 visit (Period 1). At Week 12, subjects were switched to blinded upadacitinib 15 mg QD through Period 2.
The primary objective of this study was to assess the efficacy and safety of upadacitinib 30 mg QD in adult subjects with moderate to severe HS. The primary efficacy objective was assessed based on the achievement of HiSCR after 12 weeks treatment.
The primary endpoint was Hidradenitis Suppurativa Clinical Response (HiSCR) at Week 12, where HiSCR is defined as at least 50% reduction in the total abscess and inflammatory nodule (AN) count with no increase in abscess count and no increase in draining fistula count relative to Baseline.
The secondary endpoint was Pain Numerical Rating Scale (NRS30) at Week 12: the achievement of at least 30% reduction and at least 1 unit reduction from Baseline in NRS30 in Patient's Global Assessment of Skin Pain (PGA Skin Pain) at Week 12, among subjects with Baseline NRS≥3.
The following additional efficacy endpoints were evaluated: • 1. Experience of flare, defined as an increase in AN count of at least 25% with a minimum increase of 2 relative to Baseline • 2. Change from Baseline in Dermatology Life Quality Index (DLQI) • 3. Change from baseline in Hidradenitis Suppurativa Symptom Assessment (HSSA) • 4. Change from baseline in HS-related swelling, assessed based on the HSSA • 5. Change from baseline in HS-related odor, assessed based on the HSSA • 6. Change from baseline in HS-related worst drainage, assessed based on the HSSA
For the primary and secondary endpoints, comparisons of upadacitinib vs. placebo were made with 3 different analysis strategies, as summarized in Table 1 below:
For the additional endpoints, comparisons were made for upadacitinib vs. historical reference value of placebo, and upadacitinib vs. in-trial placebo subjects.
For categorical variables, the primary approach to handle missing data was Non-Responder Imputation [NRI] incorporating Multiple Imputation [MI]. For continuous variables, missing data was handled by Mixed-effect Model Repeat Measurement (MMRM). Missing data for long-term efficacy in Period 2 were handled based on the observed case (OC).
A post-hoc efficacy assessment through week 40 was performed in the study of Example 1. The analysis included the proportion of patients achieving ≥75% and ≥90% reduction from baseline in AN count with no increase in abscess or draining fistula count (HiSCR 75 and HiSCR 90, respectively) and the proportion of patients achieving ≥55% reduction in International HS Severity Score System endpoint (IHS4-55), which dynamically assesses inflammatory nodules, abscesses, and draining tunnels.

[1] = UPA 30 mg vs in-trial PBO, p=0.086
[2] = MI, analysis vs synthetic + in-trial PBO

**Q.** With CC[C@@H]1CN(C(=O)NCC(F)(F)F)C[C@@H]1c1cnc2cnc3[nH]ccc3n12 [upadacitinib] as the compound, how does the “Pain NRS30 at Week 12, UPA - PBO Diff” value read?
**A.** 13.9%

**Q.** What about the “Pain NRS30 at Week 12, UPA - PBO Diff” value (listed as UPA) of the same compound?
**A.** Diff = 13.9%

**Q.** And the “HiSCR at Week 12, UPA - PBO Diff” value (NRI-C)?
**A.** 13.3%

**Q.** What about the “HiSCR at Week 12, UPA - PBO Diff” value (NRI-C, listed as UPA) of the same compound?
**A.** Diff = 13.3%

**Q.** What about the “Flare during Period 1, UPA - PBO Diff” value (UPA 30 mg vs historical PBO rate 34%, p=0.001) of the same compound?
**A.** Diff = −21.2

**Q.** And the “Change in HSSA odor at Week 12, UPA - PBO Diff” value (UPA 30 mg vs historical reference value −0.72, p=0.072)?
**A.** Diff = −0.479

**Q.** What about the “Change in HSSA total symptom at Week 12, UPA - PBO Diff” value (UPA 30 mg vs historical reference value −0.72, p=0.188) of the same compound?
**A.** Diff = −0.249

**Q.** What about the “Change in HSSA swelling at Week 12, UPA - PBO Diff” value (UPA 30 mg vs historical reference value −0.8, p=0.364) of the same compound?
**A.** Diff = −0.131

**Q.** And the “Change in HSSA worst drainage at Week 12, UPA - PBO Diff” value (UPA 30 mg vs historical reference value −0.89, p=0.219)?
**A.** Diff = −0.241

**Q.** What about the “Change in DLQI at Week 12, UPA - PBO Diff” value (UPA 30 mg vs historical reference value −2.5, p=0.548) of the same compound?
**A.** Diff = 0.1

**Q.** What about the “Pain NRS30 at Week 12, UPA - PBO Diff (adjusted difference)” value (“Pain NRS30 … (adjusted difference)” for short) (UPA 30 mg vs in-trial PBO (N=12), p=0.421) of the same compound?
**A.** 2.2%

**Q.** And the “Pain NRS30 … (adjusted difference)” value (UPA 30 mg vs in-trial PBO (N=12), p=0.421, listed as UPA)?
**A.** Diff = 2.2%

**Q.** What about the “HiSCR at Week 12, UPA - PBO Diff (adjusted difference)” value (shortened to “HiSCR … (adjusted difference)”) (UPA 30 mg vs in-trial PBO (N=21), NRI-C, p=0.087) of the same compound?
**A.** 14.7%

**Q.** And the “HiSCR … (adjusted difference)” value (UPA 30 mg vs in-trial PBO (N=21), NRI-C, p=0.087, listed as UPA)?
**A.** Diff = 14.7%

**Q.** And the “Change in HSSA odor at Week 12, UPA - PBO Diff” value (UPA 30 mg vs in-trial PBO, p=0.024)?
**A.** Diff = −1.246

**Q.** And the “Change in HSSA total symptom at Week 12, UPA - PBO Diff” value (UPA 30 mg vs in-trial PBO, p=0.046)?
**A.** Diff = −0.762

**Q.** And the “Change in HSSA swelling at Week 12, UPA - PBO Diff” value [1]?
**A.** Diff = −0.795

**Q.** What about the “Change in HSSA worst drainage at Week 12, UPA - PBO Diff” value [1] of the same compound?
**A.** Diff = −0.695

**Q.** What about the “Change in DLQI at Week 12, UPA - PBO Diff” value (UPA 30 mg vs in-trial PBO, p=0.222) of the same compound?
**A.** Diff = −1.4

**Q.** And the “Flare during Period 1, UPA - PBO Diff” value (UPA 30 mg vs in-trial PBO, p=0.231)?
**A.** Diff = −6.5

**Q.** And the “Pain NRS30 … (adjusted difference)” value (UPA 30 mg vs synthetic plus in-trial PBO (N=80), p=0.323)?
**A.** 4.5% (−14.6, 23.5)

**Q.** And the “Pain NRS30 … (adjusted difference)” value (UPA 30 mg vs synthetic plus in-trial PBO (N=80), p=0.323, listed as UPA)?
**A.** Diff = 4.5%

**Q.** And the “HiSCR … (adjusted difference)” value (UPA 30 mg vs synthetic plus in-trial PBO (N=89), NRI-C, p=0.142)?
**A.** 9.2% (−7.6, 25.9)

**Q.** What about the “HiSCR … (adjusted difference)” value (UPA 30 mg vs synthetic plus in-trial PBO (N=89), NRI-C, p=0.142, listed as UPA) of the same compound?
**A.** Diff = 9.2%

**Q.** And the “HiSCR at Week 12, % (N), stratum TNF-IR” value (MI, analysis vs in-trial PBO)?
**A.** 41.7% (N = 12)

**Q.** And the “HiSCR at Week 12, % (N), stratum Hurley Stage (III)” value (shortened to “HiSCR at Week 12, % (N) … (III)”) (MI, analysis vs in-trial PBO)?
**A.** 39.7% (N = 23)

**Q.** And the “HiSCR at Week 12, % (N), stratum Hurley Stage (<III)” value (“HiSCR at Week 12, % (N) … (<III)” for short) (MI, analysis vs in-trial PBO)?
**A.** 38.1% (N = 24)

**Q.** What about the “HiSCR at Week 12, % (N), stratum TNF-Naïve” value (MI, analysis vs in-trial PBO) of the same compound?
**A.** 37.9% (N = 35)

**Q.** What about the “HiSCR at Week 12, % (N), Overall” value (MI, analysis vs in-trial PBO) of the same compound?
**A.** 38.9% (N = 47)

**Q.** What about the “HiSCR at Week 12, % (N), stratum TNF-IR” value [2] of the same compound?
**A.** 41.7% (N = 12)

**Q.** What about the “HiSCR at Week 12, % (N) … (III)” value [2] of the same compound?
**A.** 40.3% (N = 23)

**Q.** What about the “HiSCR at Week 12, % (N) … (<III)” value [2] of the same compound?
**A.** 39.0% (N = 24)

**Q.** What about the “HiSCR at Week 12, % (N), stratum TNF-Naïve” value [2] of the same compound?
**A.** 39.0% (N = 35)

**Q.** And the “HiSCR at Week 12, % (N), Overall” value [2]?
**A.** 39.6% (N = 47)

**Q.** And the “HiSCR at Week 12, % (N), stratum TNF-IR” value (NRI-C)?
**A.** 41.7%

**Q.** What about the “HiSCR at Week 12, % (N), stratum TNF-IR” value (NRI-C, listed as UPA) of the same compound?
**A.** 41.7% (N = 12)

**Q.** What about the “HiSCR at Week 12, % (N) … (III)” value (NRI-C) of the same compound?
**A.** 39.1% (N = 23)

**Q.** And the “HiSCR at Week 12, % (N) … (<III)” value (NRI-C)?
**A.** 37.5% (N = 24)

**Q.** What about the “HiSCR at Week 12, % (N), stratum TNF-Naïve” value (NRI-C) of the same compound?
**A.** 37.1%
